Test results published in patent US20150045433A1, “METHODS AND COMPOSITIONS FOR INDUCING PHYSIOLOGICAL HYPERTROPHY” (THE REGENTS OF THE UNIVERSITY OF COLORADO, A BODY CORPORATE, priority 2009, published 2015).
Entries after “also recorded” stand apart in the source; their conditions may differ.

What was measured:
[1] = tested on: AQP7 mRNA; assay: AQP7 mRNA expression in neonatal rat cardiomyocytes by qPCR; format: cell-based; details: for AQP7 mRNA expression: fasted serum (2%) plus individual fatty acid (C14: 10, 33, 100 μM; C16: 33, 100, 300 μM; C16:1: 3, 10, 33 μM), 48 hours
Method: Individual fatty acids were complexed to BSA as described by de Vries et al. (1997), which is hereby incorporated by reference. […] An equal volume of Na2CO3 (10 mM) was added and the ethanol was evaporated at 60° C. under continuous N2 flow. The fatty acid mix was added dropwise to 10% BSA. BSA/fatty acid complexes were then dialyzed four times at 4° C. during 4-6 hours in NH4HCO3 (0.1 M). Complexes were then frozen, lyophilized overnight, and resuspended in NRVM rinse media (MEM/PB12/Hepes) for a final concentration of 7 mM. NRVMs were treated with fasted serum, 1 day post-fed serum, or fasted serum+individual fatty acids. […] NRVM gene expression and mean cell diameter were determined after either 24 or 48 hours, respectively.
Dose-dependent effects of individual fatty acids on AQP7 expression. […] Fasted serum (2% final) and fatty acids were diluted in serum-free media (MEM/Hepes/PB12) containing insulin, trnsferrin, BSA, and BrdU. Cells were treated for 48 hours and AQP7 mRNA expression was determined using qPCR with 18S as the normalizing gene.
siRNA studies. Rat AQP7 mRNA sequence was analyzed for potential small interfering RNA (siRNA) target regions using a sequence identification tool (Ambion, Inc., Austin, Tex.). Potential target sequences were transcribed from oligonucleotide templates using the Silencer siRNA Construction kit (Ambion, Inc., Austin, Tex.). To test for the ability of siRNAs to effectively reduce AQP7 expression, NRVMs were transfected with siRNA (100 nM) using Lipofectamine Plus reagent as specified by the manufacturer (Invitrogen, Carlsbad, Calif.). Several rat AQP7-specific siRNA sequences (#1: 5′-[…]-3′ (SEQ ID NO:22); #2: […]-3′ (SEQ ID NO:23); #3 5′-[…]-3′ (SEQ ID NO:24)) were tested for efficacy of gene knockdown using qPCR. […] A nonspecific siRNA (Silencer Negative Control #2; Ambion, Inc., Austin, Tex.) was used as a negative control.

[2] = tested on: neonatal rat ventricular myocytes (NRVMs); assay: NRVM cell size / hypertrophy (a-actinin staining, Coulter Counter); format: cell-based
Method: Primary culture cardiomyocytes prepared from neonatal rats were treated with fasted and post-fed serum samples. Twenty four hours later the cells were removed from the culturing dish and analyzed for changes in cell size by immunostaining or by automatic analyzer such as Coulter Counter.
In other experiments, neonatal rat cardiac myocytes (NRVMs) were prepared according to the method described in Waspe et al. (1990). In brief, cells were obtained from the hearts of Sprague-Dawley rat pups (1-2 days old) by trypsinization and plated in MEM medium (Hanks' salts) with 5% calf serum. After 48 h in culture, cells were transferred to serum-free medium supplemented with transferring and insulin (each 10 μg/ml). Cells were maintained in 60- or 35-mm culture dishes at a density of 200,000 cells/ml. Contaminating non-muscle cells were kept at <10% by pre-plating and addition of 0.1 mM bromodeoxyuridine to the medium though day 3 of culture.
Before treating the cells, serum samples were thawed and heat inactivated at 58° C. for 30 min. […]
Cardiomyocytes grown on gelatin-coated coverslips were infected with Ad Aqp7 for 48 h. […] Images were captured at a 40x magnification with a fluorescence microscope (Nikon E800) equipped with a digital camera (AxioCam) and Axiovision, version 3.0.6.36 imaging software (Carl Zeiss, Thornwood, NY). The surface areas were measured using NIH image software (Image J) and at least 100 individualized cells were analyzed per each experiment. Cell size was also determined by particle size analyzer, Coulter Counter Multisizer 3 ([…]).
Inhibition of fatty acid transport blocks serum-induced NRVM hypertrophy. […] NRVMs were treated with serum (2%) in the presence and absence of SSO (400 μM) for 48 hours and cell size was determined using a Coulter Counter.
Individual fatty acids were complexed to BSA as described by de Vries et al. (1997), which is hereby incorporated by reference. […] NRVM gene expression and mean cell diameter were determined after either 24 or 48 hours, respectively. […]

[3] = tested on: fetal gene program (β-myosin heavy chain, ANF, BNP, skeletal actin, SERCA); assay: Pathologic fetal gene expression in NRVMs by qPCR; format: cell-based, rat; details: 48 hours
Method: FIG. 4. […] Neonatal rat cardiomyocytes were untreated (lightest gray bars) or treated with fasted serum (light gray bars), post-fed serum (black bars) and Phenylephrin (PE; dark gray bars). After 48 hours, RNA was isolated and cDNA was obtained by standard procedures. The expression of several pathologic hypertrophic markers was measured by quantitative real-time PCR including β-myosin heavy chain, atrial natriuretic factor (ANF), brain natriuretic peptide (BNP), skeletal actin and sarcoplasmic reticulum calcium ATPase (SERCA).
Total RNA was extracted by TRizol (Invitrogen). 0.5 μg of RNA was reverse transcribed into cDNA using the SuperScript III first-strand cDNA synthesis kit (Invitrogen). Typically, 0.1 ng of cDNA, 12.5 nM of each primer, and Power SYBER Green PCR Master Mix (Applied Biosystems, Foster City, Calif.) were used in the reverse transcription (RT)-PCR reactions. Reactions were performed using the ABI7300 system. The primers used are presented on Table 1.
Total RNA was extracted from mouse or python ventricle and NRVMs using TRI Reagent (Invitrogen). 0.5 to 2.0 μg of RNA was reverse transcribed into cDNA using the SuperScript III first-strand cDNA synthesis kit (Invitrogen). Quantitative real time PCR reactions were performed using the ABI7300 system (Applied Biosystems, Foster City, Calif., USA) and the Power SYBR Green PCR Master Mix (Applied Biosystems). […]

CCCCCCCCCCCCCC(=O)O [C14, tetradecanoic acid]
Aqp7 mRNA levels ([1]; fasted plasma supplemented with FFAs, relative to 1 DPF plasma): comparable levels observed with 1 DPF plasma | AQP7 mRNA expression [1]: tended to increase AQP7 mRNA expression in a dose-dependent manner | cell size ([2]; fasted plasma (2%) supplemented with fatty acids at 1 DPF levels (C14 40 μM; C16 137 μM; C16:1 7.5 μM), 48 hours): significant increase in cell size

CCCCCC/C=C\CCCCCCCC(=O)O [C16:1, (z)-9-hexadecenoic acid]
AQP7 mRNA expression [1]: tended to increase AQP7 mRNA expression in a dose-dependent manner

CNC[C@H](O)c1cccc(O)c1 [phenylephrine]
activation of fetal gene program / pathological gene expression [3]: robust activation of pathological patterns of gene expression

CCCCCCCC/C=C\CCCCCCCC(=O)ON1C(=O)CC(S(=O)(=O)O)C1=O (centres unmarked) [SSO, sulfo-N-succinimidyl oleate]
effect on cell growth (hypertrophy) induced by fed serum/plasma ([2]; SSO 400 μM, 2% 1DPF fed serum/plasma): completely blocks the cell growth induced by the fed-serum; also recorded: completely blocked the pro-hypertrophic effect of fed plasma; also recorded: significantly reduced | cell size, no serum (control) ([2]; presence of SSO, no serum): smaller

CCCCCCCCCCCCCCCC(=O)O [C16, hexadecanoid acid]
AQP7 mRNA expression [1]: tended to increase AQP7 mRNA expression in a dose-dependent manner
